Test results from patent US20230263822A1, “MODULATION OF FACTOR 11 EXPRESSION” (Ionis Pharmaceuticals, Inc., priority 2008, published 2023).
Strand notation (5' to 3'): a small letter for the sugar, then the base; units joined by * are phosphorothioate-linked, units joined directly phosphodiester-linked; [ ] holds rarer units or linkages, { } end groups; capitals alone tell only the bases. e = 2'-O-(2-methoxyethyl) (MOE); [5mC] = 5-methylcytosine; d = 2'-deoxy (DNA)

Tested on: human Factor 11 mRNA
Test: Antisense inhibition of human Factor 11 in HepG2 cells by microwalk gapmers, lipofectin, 75 nM (Example 3)
Format: cell-based
Experimental: These gapmers were designed by creating gapmers shifted slightly upstream and downstream (i.e. “microwalk”) of the original gapmers from Table 3. Gapmers were also created with various motifs, e.g. 5-10-5 MOE, 3-14-3 MOE, and 2-13-5 MOE. These gapmers were tested in vitro. Cultured HepG2 cells at a density of 10,000 cells per well were transfected using lipofectin reagent with 75 nM antisense oligonucleotide. After a treatment period of approximately 24 hours, RNA was isolated from the cells and Factor 11 mRNA levels were measured by quantitative real-time PCR. Factor 11 mRNA levels were adjusted according to total RNA content, as measured by RIBOGREEN. Results are presented as percent inhibition of Factor 11, relative to untreated control cells.
The chimeric antisense oligonucleotides in Table 4 were designed as 5-10-5 MOE, 3-14-3 MOE, and 2-13-5 MOE gapmers. The first listed gapmers in Table 4 are the original gapmers (see Table 3) from which the remaining gapmers were designed via microwalk and are designated by an asterisk. The 5-10-5 gapmers are 20 nucleotides in length, wherein the central gap segment is comprised of 10 2′-deoxynucleotides and is flanked on both sides (in the 5′ and 3′ directions) by wings comprising 5 nucleotides each. The 3-14-3 gapmers are 20 nucleotides in length, wherein the central gap segment is comprised of 14 2′-deoxynucleotides and is flanked on both sides (in the 5′ and 3′ directions) by wings comprising 3 nucleotides each. The 2-13-5 gapmers are 20 nucleotides in length, wherein the central gap segment is comprised of 13 2′-deoxynucleotides. The central gap is flanked on the 5′ end with a wing comprising 2 nucleotides and on the 3′ end with a wing comprising 5 nucleotides. For each of the motifs (5-10-5, 3-14-3, and 2-13-5), each nucleotide in the 5′ wing segment and each nucleotide in the 3′ wing segment has a 2′-MOE modification. The internucleoside linkages throughout each gapmer are phosphorothioate (P=S) linkages. All cytidine residues throughout each gapmer are 5-methyl cytidines. “Target start site” indicates the 5′-most nucleotide to which the gapmer is targeted. “Target stop site” indicates the 3′-most nucleotide to which the gapmer is targeted. Each gapmer listed in Table 4 is targeted to SEQ ID NO: 1 (GENBANK Accession No. NM_000128.3).

[1] = HepG2 cells, lipofectin, gapmers targeted to nucleobases 1062 to 1091 of SEQ ID NO: 1
[2] = HepG2 cells, lipofectin, gapmers targeted to nucleobases 1275 to 1318 of SEQ ID NO: 1
[3] = HepG2, lipofectin, ~24 h, gapmers targeted to nucleobases 656 to 704 of SEQ ID NO: 1

Substance	% inhibition [2] [%]	% inhibition [3] [%]	other results
416915 (antisense eT*eT*eT*dG*dA*dG*dA*dT*dT*d[5mC]*dT*dT*dT*dG*dG*dG*d[5mC]*e[5mC]*eA*eT) [compound 416915]			% inhibition [1]: 79%
416916 (antisense e[5mC]*eT*eT*dT*dG*dA*dG*dA*dT*dT*d[5mC]*dT*dT*dT*dG*dG*dG*e[5mC]*e[5mC]*eA) [compound 416916]			% inhibition [1]: 91%
416917 (antisense eT*e[5mC]*eT*dT*dT*dG*dA*dG*dA*dT*dT*d[5mC]*dT*dT*dT*dG*dG*eG*e[5mC]*e[5mC]) [compound 416917]			% inhibition [1]: 92%
416918 (antisense eT*eT*e[5mC]*dT*dT*dT*dG*dA*dG*dA*dT*dT*d[5mC]*dT*dT*dT*dG*eG*eG*e[5mC]) [compound 416918]			% inhibition [1]: 63%
416919 (antisense eT*eT*eT*d[5mC]*dT*dT*dT*dG*dA*dG*dA*dT*dT*d[5mC]*dT*dT*dT*eG*eG*eG) [compound 416919]			% inhibition [1]: 27%
416920 (antisense eA*e[5mC]*eA*dG*dT*dT*dT*d[5mC]*dT*dG*dG*d[5mC]*dA*dG*dG*d[5mC]*d[5mC]*eT*e[5mC]*eG) [compound 416920]	88		
416921 (antisense e[5mC]*eA*e[5mC]*dA*dG*dT*dT*dT*d[5mC]*dT*dG*dG*d[5mC]*dA*dG*dG*d[5mC]*e[5mC]*eT*e[5mC]) [compound 416921]	88		
416927 (antisense eT*eT*eG*dG*dT*dG*d[5mC]*dA*d[5mC]*dA*dG*dT*dT*dT*d[5mC]*dT*dG*eG*e[5mC]*eA) [compound 416927]	87		
416928 (antisense eA*eT*eT*dG*dG*dT*dG*d[5mC]*dA*d[5mC]*dA*dG*dT*dT*dT*d[5mC]*dT*eG*eG*e[5mC]) [compound 416928]	91		
416929 (antisense e[5mC]*eA*eT*dT*dG*dG*dT*dG*d[5mC]*dA*d[5mC]*dA*dG*dT*dT*dT*d[5mC]*eT*eG*eG) [compound 416929]	83		
416930 (antisense eG*e[5mC]*eA*dT*dT*dG*dG*dT*dG*d[5mC]*dA*d[5mC]*dA*dG*dT*dT*dT*e[5mC]*eT*eG) [compound 416930]	87		
416932 (antisense e[5mC]*eG*eG*d[5mC]*dA*dT*dT*dG*dG*dT*dG*d[5mC]*dA*d[5mC]*dA*dG*dT*eT*eT*e[5mC]) [compound 416932]	92		
416933 (antisense eA*e[5mC]*eG*dG*d[5mC]*dA*dT*dT*dG*dG*dT*dG*d[5mC]*dA*d[5mC]*dA*dG*eT*eT*eT) [compound 416933]	92		
416934 (antisense eG*eA*e[5mC]*dG*dG*d[5mC]*dA*dT*dT*dG*dG*dT*dG*d[5mC]*dA*d[5mC]*dA*eG*eT*eT) [compound 416934]	90		
416935 (antisense eG*eG*eA*d[5mC]*dG*dG*d[5mC]*dA*dT*dT*dG*dG*dT*dG*d[5mC]*dA*d[5mC]*eA*eG*eT) [compound 416935]	92		
416936 (antisense e[5mC]*eG*eG*dA*d[5mC]*dG*dG*d[5mC]*dA*dT*dT*dG*dG*dT*dG*d[5mC]*dA*e[5mC]*eA*eG) [compound 416936]	89		
416937 (antisense eG*e[5mC]*eG*dG*dA*d[5mC]*dG*dG*d[5mC]*dA*dT*dT*dG*dG*dT*dG*d[5mC]*eA*e[5mC]*eA) [compound 416937]	93		
416938 (antisense eA*eG*e[5mC]*dG*dG*dA*d[5mC]*dG*dG*d[5mC]*dA*dT*dT*dG*dG*dT*dG*e[5mC]*eA*e[5mC]) [compound 416938]	90		
416939 (antisense e[5mC]*eA*eG*d[5mC]*dG*dG*dA*d[5mC]*dG*dG*d[5mC]*dA*dT*dT*dG*dG*dT*eG*e[5mC]*eA) [compound 416939]	88		
416940 (antisense eG*e[5mC]*eA*dG*d[5mC]*dG*dG*dA*d[5mC]*dG*dG*d[5mC]*dA*dT*dT*dG*dG*eT*eG*e[5mC]) [compound 416940]	92		

Substance	% inhibition [2] [%]	% inhibition [3] [%]	other results
416942 (antisense eT*eG*eG*d[5mC]*dA*dG*d[5mC]*dG*dG*dA*d[5mC]*dG*dG*d[5mC]*dA*dT*dT*eG*eG*eT) [compound 416942]	85		
416943 (antisense e[5mC]*eT*eG*dG*d[5mC]*dA*dG*d[5mC]*dG*dG*dA*d[5mC]*dG*dG*d[5mC]*dA*dT*eT*eG*eG) [compound 416943]	92		
416944 (antisense eA*e[5mC]*eT*dG*dG*d[5mC]*dA*dG*d[5mC]*dG*dG*dA*d[5mC]*dG*dG*d[5mC]*dA*eT*eT*eG) [compound 416944]	83		
416946 (antisense eA*eA*dA*dT*dG*dT*d[5mC]*dT*dT*dT*dG*dT*dT*dG*d[5mC]*eA*eA*eG*e[5mC]*eG) [compound 416946]		86	
416947 (antisense eT*eA*dA*dA*dT*dG*dT*d[5mC]*dT*dT*dT*dG*dT*dT*dG*e[5mC]*eA*eA*eG*e[5mC]) [compound 416947]		62	
416948 (antisense eA*eT*dA*dA*dA*dT*dG*dT*d[5mC]*dT*dT*dT*dG*dT*dT*eG*e[5mC]*eA*eA*eG) [compound 416948]		62	
416949 (antisense e[5mC]*eA*dT*dA*dA*dA*dT*dG*dT*d[5mC]*dT*dT*dT*dG*dT*eT*eG*e[5mC]*eA*eA) [compound 416949]		64	
416950 (antisense eA*e[5mC]*dA*dT*dA*dA*dA*dT*dG*dT*d[5mC]*dT*dT*dT*dG*eT*eT*eG*e[5mC]*eA) [compound 416950]		71	
416951 (antisense e[5mC]*eA*d[5mC]*dA*dT*dA*dA*dA*dT*dG*dT*d[5mC]*dT*dT*dT*eG*eT*eT*eG*e[5mC]) [compound 416951]		48	
416952 (antisense e[5mC]*e[5mC]*dA*d[5mC]*dA*dT*dA*dA*dA*dT*dG*dT*d[5mC]*dT*dT*eT*eG*eT*eT*eG) [compound 416952]		51	
416953 (antisense eT*e[5mC]*d[5mC]*dA*d[5mC]*dA*dT*dA*dA*dA*dT*dG*dT*d[5mC]*dT*eT*eT*eG*eT*eT) [compound 416953]		45	
416954 (antisense eG*eT*d[5mC]*d[5mC]*dA*d[5mC]*dA*dT*dA*dA*dA*dT*dG*dT*d[5mC]*eT*eT*eT*eG*eT) [compound 416954]		61	
416955 (antisense eG*eG*dT*d[5mC]*d[5mC]*dA*d[5mC]*dA*dT*dA*dA*dA*dT*dG*dT*e[5mC]*eT*eT*eT*eG) [compound 416955]		75	
416956 (antisense eA*eG*dG*dT*d[5mC]*d[5mC]*dA*d[5mC]*dA*dT*dA*dA*dA*dT*dG*eT*e[5mC]*eT*eT*eT) [compound 416956]		61	
416957 (antisense eT*eA*dG*dG*dT*d[5mC]*d[5mC]*dA*d[5mC]*dA*dT*dA*dA*dA*dT*eG*eT*e[5mC]*eT*eT) [compound 416957]		59	
416958 (antisense e[5mC]*eT*dA*dG*dG*dT*d[5mC]*d[5mC]*dA*d[5mC]*dA*dT*dA*dA*dA*eT*eG*eT*e[5mC]*eT) [compound 416958]		43	
416959 (antisense eT*e[5mC]*dT*dA*dG*dG*dT*d[5mC]*d[5mC]*dA*d[5mC]*dA*dT*dA*dA*eA*eT*eG*eT*e[5mC]) [compound 416959]		25	
416960 (antisense eG*eT*d[5mC]*dT*dA*dG*dG*dT*d[5mC]*d[5mC]*dA*d[5mC]*dA*dT*dA*eA*eA*eT*eG*eT) [compound 416960]		60	
416961 (antisense eT*eG*dT*d[5mC]*dT*dA*dG*dG*dT*d[5mC]*d[5mC]*dA*d[5mC]*dA*dT*eA*eA*eA*eT*eG) [compound 416961]		40	
416962 (antisense eA*eT*dG*dT*d[5mC]*dT*dA*dG*dG*dT*d[5mC]*d[5mC]*dA*d[5mC]*dA*eT*eA*eA*eA*eT) [compound 416962]		77	
